The values that follow come from patent USRE45666E1, “Preparation of hydrophilic pressure sensitive adhesives having optimized adhesive properties” (priority 2000, dated 2015).

Series [1] in a line: In vitro drug delivery rate across Carbosil membrane. It is filed as in vitro ADME. The protocol:
In vitro drug delivery rate determination from water-soluble PSA matrices was performed using human cadaver skin or a skin-imitating Carbosil membrane to protect the matrices from dissolving in the receptor solution. The patch was adhered to the center of a Carbosil membrane sheet of twice its area. The membrane margins were then wrapped around the sample. The back side of the packet was closely attached to a steel plate-holder to prevent direct contact of the matrix with the receptor solution. In a similar fashion, cadaver skin epidermis can be used instead of a Carbosil membrane. The holder with the wrapped sample was then submerged into an aqueous sink and in vitro drug delivery rate was determined using a USP rotating cylinder method paddle-over-disc. The rate of drug appearance rate in a receptor solution (0.15 M NaCl) at 35.0±0.5° C. was determined spectrophotometrically.

The mark [2] stands for this setting: Styrene butadiene rubber matrix.

Like-named read-outs stand apart in the source and are kept apart here.

Take `Clc1cccc(Cl)c1N=C1NCCN1` [Clonidine]: the “Release rate from hydrophobic matrices” value (PIB matrix (Catapress ® TTS)) is listed as 1.6 ± 0.2 μg/cm^2h. The “Delivery rate from hydrophilic matrix via Carbosil” value (“Delivery rate” for short) in series [1] (hydrophilic PVP-PEG matrix) is given as 5 ± 2 μg/cm^2h.

On to `O=[N+]([O-])OCC(CO[N+](=O)[O-])O[N+](=O)[O-]` [Nitroglycerin], for which the “Delivery rate” value in series [1] amounted to 160 ± 40 μg/cm^2h.

As to `CC(C)NCC(O)COc1cccc2ccccc12` (stereo not shown) [Propranolol], the “Release rate from hydrophobic matrices” value under setting [2] is 56 ± 4 μg/cm^2h. For the same molecule, the “Delivery rate” value in series [1] (hydrophilic PVP-PEG matrix) came to 118 ± 25 μg/cm^2h. Taken in the same sequence, the figures for Silabolin were 16 ± 7 μg/cm^2h and 131 ± 30 μg/cm^2h.
